# Source: patent publication US20130150340A1, “6-(4-Hydroxy-phenyl)-1H-pyrazolo[3,4-b]pyridine-4-carboxylic acid amide derivatives as kinase inhibitors” (SANOFI, priority 2011, published 2013)
# Target: T1, human full-length recombinant PKC βII (Homo sapiens, UniProt P05771)
# T1 construct: Active human full-length recombinant PKC βII; purchased Invitrogen GmbH, Darmstadt, Germany
# Assay: Determination of PKC βII inhibition (Caliper mobility-shift kinase assay)
# Type: biochemical
# Conditions: example compounds at a final concentration of 1.14 μM (±0.15 μM); 60 min incubation at 32° C.
# Method: Determination of PKC 3H Inhibition
# PKC βII inhibition was determined according to the following protocol:
# Active human full-length recombinant PKC βII and the peptide substrate, Fluorescein-RFARKGSLRQKNV, were purchased from Invitrogen GmbH, Darmstadt, Germany. Adenosine-5′-triphosphate (ATP), bovine serum albumine (BSA), dimethylsulphoxide (DMSO), 4-(2-hydroxyethyl)piperazine-1-ethanesulfonic acid (Hepes), Triton X-100, 1,2-Dioleoyl-sn-glycerol (DAG), L-α-Phosphatidyl-L-serine (PS), calcium chloride (CaCl2), and Pluronic F-68 were purchased from Sigma-Aldrich, Munich, Germany. Magnesium chloride, 1 M sodium hydroxide solution, 1M hydrochloric acid solution and EDTA were obtained from Merck Biosciences, Darmstadt, Germany.
# Test compounds were diluted to three times the test concentration in buffer 1 (30 mM Hepes-NaOH, pH 7.4, 0.01% Pluronic F-68 and 3% (v/v) DMSO). The PKC βII enzyme was diluted to a concentration of 30 ng/ml in buffer 2 (30 mM Hepes-NaOH, pH 7.4, 15 mM MgCl2, 150 μM CaCl2, 150 μg/ml PS, 60 μg/ml DAG, and 0.045% (w/v) Triton X-100). The peptide substrate and ATP were diluted to concentrations of 3 μM and 120 μM, respectively, in buffer 2. Two μl of the compound solution were mixed with 2 μl of the diluted enzyme in a 384-well small volume microtiter plate (Greiner, Bio-One, Frickenhausen, Germany), and the kinase reaction was initiated by addition of 2 μl of the solution containing peptide substrate and ATP. After 60 min incubation at 32° C., the reaction was stopped by addition of 20 μl of a solution containing 130 mM Hepes-NaOH, pH 7.4, 0.0195% (v/v) Brij-35, 6.5 mM EDTA, 0.13% chip coating reagent 3 (Caliper Lifescience Inc, Hopkinton, Mass.) and 6.5% (v/v) DMSO. Phosphorylation of the substrate peptide was then detected on a Caliper 3000 instrument essentially as described by Pommereau et al (J. Biomol. Screening 2004, 9(5), […]), Separation conditions were as follows: Pressure −0.8 psi, upstream voltage −3000 V, downstream voltage −800 V. Positive controls (buffer 1 instead of compound) and negative controls (buffer 1 instead of compound and buffer 2 instead of kinase solution) were run in parallel on each plate. Fractional turnover (R) was determined as the height of the peak of the phosphorylated peptide product divided by the sum of the unphosphorylated substrate and phosphorylated product peak heights. Percent-inhibition values for the test compounds were determined using the formula
# % Inhibition=100*(1−(Rcompound−Rnegative control)/(Rpositive control−Rnegative control).
# T1 sequence (P05771 1-673 isoform P05771-2): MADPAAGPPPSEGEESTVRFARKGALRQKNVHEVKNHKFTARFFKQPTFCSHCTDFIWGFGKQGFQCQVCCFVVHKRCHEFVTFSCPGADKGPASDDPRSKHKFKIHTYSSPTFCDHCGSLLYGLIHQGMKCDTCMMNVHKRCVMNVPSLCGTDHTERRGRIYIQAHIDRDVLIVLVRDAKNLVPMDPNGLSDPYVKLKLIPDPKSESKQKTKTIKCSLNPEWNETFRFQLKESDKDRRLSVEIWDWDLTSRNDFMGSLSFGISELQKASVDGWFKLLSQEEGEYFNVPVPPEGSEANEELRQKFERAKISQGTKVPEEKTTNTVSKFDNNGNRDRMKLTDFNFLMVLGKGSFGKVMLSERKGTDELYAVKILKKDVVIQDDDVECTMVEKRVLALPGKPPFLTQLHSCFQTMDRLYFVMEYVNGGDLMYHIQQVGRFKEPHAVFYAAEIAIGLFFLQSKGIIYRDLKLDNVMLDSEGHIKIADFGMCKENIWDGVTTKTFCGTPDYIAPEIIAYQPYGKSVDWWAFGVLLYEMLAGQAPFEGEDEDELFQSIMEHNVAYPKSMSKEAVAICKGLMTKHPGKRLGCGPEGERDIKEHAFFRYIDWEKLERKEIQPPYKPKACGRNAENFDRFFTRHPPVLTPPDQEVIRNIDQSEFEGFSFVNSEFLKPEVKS
row,Compound,inhibition at 1.14 µM
1,"O=C(c1cc(-c2ccc(O)cc2)nc2[nH]ncc12)N1CCCNCC1 [Example 7, [1,4]Diazepan-1-yl-[6-(4-hydroxy-phenyl)-1H-pyrazolo[3,4-b]pyridin-4-yl]-methanone]",84%
2,"CC1(C)CNCCN1C(=O)c1cc(-c2ccc(O)cc2)nc2[nH]ncc12 [Example 10, (2,2-Dimethyl-piperazin-1-yl)-[6-(4-hydroxy-phenyl)-1H-pyrazolo[3,4-b]pyridin-4-yl]-methanone]",96%
3,"CC(C)C1CN(C(=O)c2cc(-c3ccc(O)cc3F)nc3[nH]ncc23)C(C)(C)CN1 (stereo not drawn) [Example 15, [6-(2-Fluoro-4-hydroxy-phenyl)-1H-pyrazolo[3,4-b]pyridin-4-yl]-(5-isopropyl-2,2-dimethyl-piperazin-1-yl)-methanone]",94%
4,"O=C(N[C@H]1CN2CCC1CC2)c1cc(-c2ccc(O)cc2)nc2[nH]ncc12 [Example 18, 6-(4-Hydroxy-phenyl)-1H-pyrazolo[3,4-b]pyridine-4-carboxylic acid-(R)-(1-Aza-bicyclo[2.2.2]oct-3-yl)amide]",72%
5,"O=C(c1cc(-c2ccc(O)cc2)nc2[nH]ncc12)N1CC2(CCNCC2)C1 [Example 20, (2,7-Diaza-spiro[3.5]non-2-yl)-[6-(4-hydroxy-phenyl)-1H-pyrazolo[3,4-b]pyridin-4-yl]-methanone]",77%
6,"O=C(c1cc(-c2ccc(O)cc2)nc2[nH]ncc12)N1CCC2(CC1)CNC2 [Example 21, (2,7-Diaza-spiro[3.5]non-7-yl)-[6-(4-hydroxy-phenyl)-1H-pyrazolo[3,4-b]pyridin-4-yl]-methanone]",59%
7,"O=C(c1cc(-c2ccc(O)cc2)nc2[nH]ncc12)N1CCC2(CCNCC2)C1 [Example 22, (2,8-Diaza-spiro[4.5]dec-2-yl)-[6-(4-hydroxy-phenyl)-1H-pyrazolo[3,4-b]pyridin-4-yl]-methanone]",42%
8,"O=C(c1cc(-c2ccc(O)cc2)nc2[nH]ncc12)N1CCC2(CCCNC2)C1 (stereo not drawn) [Example 23, (2,7-Diaza-spiro[4.5]dec-2-yl)-[6-(4-hydroxy-phenyl)-1H-pyrazolo[3,4-b]pyridin-4-yl]-methanone]",52%
9,"O=C(c1cc(-c2ccc(O)cc2)nc2[nH]ncc12)N1CCCC2(CCNC2)C1 (stereo not drawn) [Example 24, (2,7-Diaza-spiro[4.5]dec-7-yl)-[6-(4-hydroxy-phenyl)-1H-pyrazolo[3,4-b]pyridin-4-yl]-methanone]",29%
10,"O=C(c1cc(-c2ccc(O)cc2)nc2[nH]ncc12)N1CCC2(CCNC2)C1 (stereo not drawn) [Example 25, (2,7-Diaza-spiro[4.4]non-2-yl)-[6-(4-hydroxy-phenyl)-1H-pyrazolo[3,4-b]pyridin-4-yl]-methanone]",58%
11,"O=C(c1cc(-c2ccc(O)cc2)nc2[nH]ncc12)N1CCC2(CC1)CNCCO2 [Example 26, [6-(4-Hydroxy-phenyl)-1H-pyrazolo[3,4-b]pyridin-4-yl]-(1-oxa-4,9-diaza-spiro[5.5]undec-9-yl)-methanone]",36%
12,"O=C(c1cc(-c2ccc(O)cc2)nc2[nH]ncc12)N1CCOC2(CCCNC2)C1 (stereo not drawn) [Example 27, [6-(4-Hydroxy-phenyl)-1H-pyrazolo[3,4-b]pyridin-4-yl]-(1-oxa-4,8-diaza-spiro[5.5]undec-4-yl)-methanone]",42%
13,"O=C(c1cc(-c2ccc(O)cc2)nc2[nH]ncc12)N1CCCC2(CNCCO2)C1 (stereo not drawn) [Example 28, [6-(4-Hydroxy-phenyl)-1H-pyrazolo[3,4-b]pyridin-4-yl]-(1-oxa-4,8-diaza-spiro[5.5]undec-8-yl)-methanone]",15%

# Next, values leading:
row,inhibition at 1.14 µM,Compound
1,87%,"CO[C@H]1CNC[C@@H]1NC(=O)c1cc(-c2ccc(O)cc2)nc2[nH]ncc12 (racemic) [Example 29, 6-(4-Hydroxy-phenyl)-1H-pyrazolo[3,4-b]pyridine-4-carboxylic acid (trans-4-methoxy-pyrrolidin-3-yl)-amide]"
2,55%,"N[C@H]1C[C@@H]1NC(=O)c1cc(-c2ccc(O)cc2)nc2[nH]ncc12 (racemic) [Example 51, 6-(4-Hydroxy-phenyl)-1H-pyrazolo[3,4-b]pyridine-4-carboxylic acid (trans-2-amino-cyclopropyl)-amide]"
3,18%,"CC1(C)CC(NC(=O)c2cc(-c3ccc(O)cc3)nc3[nH]ncc23)CC(C)(C)N1 [Example 1, 6-(4-Hydroxy-phenyl)-1H-pyrazolo[3,4-b]pyridine-4-carboxylic acid (2,2,6,6-tetramethyl-piperidin-4-yl)-amide]"
4,27%,"O=C(NC1CCNCC1)c1cc(-c2ccc(O)cc2)nc2[nH]ncc12 [Example 2, 6-(4-Hydroxy-phenyl)-1H-pyrazolo[3,4-b]pyridine-4-carboxylic acid piperidin-4-ylamide]"
5,95%,"NC1CCCN(C(=O)c2cc(-c3ccc(O)cc3)nc3[nH]ncc23)C1 (stereo not drawn) [Example 3, (3-Amino-piperidin-1-yl)-[6-(4-hydroxy-phenyl)-1H-pyrazolo[3,4-b]pyridin-4-yl]-methanone]"
6,88%,"O=C(c1cc(-c2ccc(O)cc2)nc2[nH]ncc12)N1CCNCC1 [Example 4, [6-(4-Hydroxy-phenyl)-1H-pyrazolo[3,4-b]pyridin-4-yl]-piperazin-1-yl-methanone]"
7,85%,"O=C(NC1CCNC1)c1cc(-c2ccc(O)cc2)nc2[nH]ncc12 (stereo not drawn) [Example 5, 6-(4-Hydroxy-phenyl)-1H-pyrazolo[3,4-b]pyridine-4-carboxylic acid pyrrolidin-3-ylamide]"
8,87%,"CO[C@H]1CNC[C@@H]1NC(=O)c1cc(-c2ccc(O)cc2)nc2[nH]ncc12 [Example 6, 6-(4-Hydroxy-phenyl)-1H-pyrazolo[3,4-b]pyridine-4-carboxylic acid ((3S,4S)-4-methoxy-pyrrolidin-3-yl)-amide]"
9,46%,"N[C@H]1CC[C@@H](NC(=O)c2cc(-c3ccc(O)cc3)nc3[nH]ncc23)CC1 [Example 8, 6-(4-Hydroxy-phenyl)-1H-pyrazolo[3,4-b]pyridine-4-carboxylic acid (cis-4-amino-cyclohexyl)-amide]"
10,82%,"N[C@H]1CC[C@H](NC(=O)c2cc(-c3ccc(O)cc3)nc3[nH]ncc23)CC1 [Example 9, 6-(4-Hydroxy-phenyl)-1H-pyrazolo[3,4-b]pyridine-4-carboxylic acid (trans-4-amino-cyclohexyl)-amide]"
11,87%,"N[C@H]1CC[C@H](CNC(=O)c2cc(-c3ccc(O)cc3)nc3[nH]ncc23)CC1 [Example 11, 6-(4-Hydroxy-phenyl)-1H-pyrazolo[3,4-b]pyridine-4-carboxylic acid (trans-4-amino-cyclohexylmethyl)-amide]"
12,46%,"N[C@H]1CC[C@@H](CNC(=O)c2cc(-c3ccc(O)cc3)nc3[nH]ncc23)CC1 [Example 12, 6-(4-Hydroxy-phenyl)-1H-pyrazolo[3,4-b]pyridine-4-carboxylic acid (cis-4-amino-cyclohexylmethyl)-amide]"
13,39%,"O=C(NCC1CNC1)c1cc(-c2ccc(O)cc2)nc2[nH]ncc12 [Example 13, 6-(4-Hydroxy-phenyl)-1H-pyrazolo[3,4-b]pyridine-4-carboxylic acid (azetidin-3-ylmethyl)-amide]"
14,69%,"NC1CC(NC(=O)c2cc(-c3ccc(O)cc3)nc3[nH]ncc23)C1 (stereo not drawn) [Example 14, 6-(4-Hydroxy-phenyl)-1H-pyrazolo[3,4-b]pyridine-4-carboxylic acid (3-amino-cyclobutyl)-amide]"
15,66%,"N[C@@H]1CCN(C(=O)c2cc(-c3ccc(O)cc3)nc3[nH]ncc23)C1 [Example 16, ((R)-3-Amino-pyrrolidin-1-yl)-[6-(4-hydroxy-phenyl)-1H-pyrazolo[3,4-b]-pyridin-4-yl]-methanone]"
16,64%,"N[C@H]1CCN(C(=O)c2cc(-c3ccc(O)cc3)nc3[nH]ncc23)C1 [Example 17, ((S)-3-Amino-pyrrolidin-1-yl)-[6-(4-hydroxy-phenyl)-1H-pyrazolo[3,4-b]pyridin-4-yl]-methanone]"
17,83%,"O=C(N[C@@H]1CCCNC1)c1cc(-c2ccc(O)cc2)nc2[nH]ncc12 [Example 19, 6-(4-Hydroxy-phenyl)-1H-pyrazolo[3,4-b]pyridine-4-carboxylic acid (R)-piperidin-3-ylamide]"
